Data from patent publication US20230271949A1, “GLP-1R MODULATING COMPOUNDS” (ASCLETIS BIOSCIENCE CO., LTD., priority 2022, published 2023).

Target: GLP-1R (Homo sapiens, UniProt P43220)
Test: GLP-1R agonist cAMP stimulation assay (HTRF cAMP)
Assay type: cell-based
Conditions: HEK293 cell line expressing GLP-1 target; HTRF cAMP agonist mode, 30 min at RT
Procedure, shortened: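 Read-out was HTRF (665/615 ratio), interpolated onto a cAMP standard curve and normalised to DMSO (0%) and maximal GLP-1(7-37) reference (100%) wells. Assay: GLP-1R cells at 1.0×E5/mL incubated with compound dilution series (3-fold, 10 points) for 30 min at room temperature before 60 min detection.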

GLP-1R, sequence (P43220 24-463): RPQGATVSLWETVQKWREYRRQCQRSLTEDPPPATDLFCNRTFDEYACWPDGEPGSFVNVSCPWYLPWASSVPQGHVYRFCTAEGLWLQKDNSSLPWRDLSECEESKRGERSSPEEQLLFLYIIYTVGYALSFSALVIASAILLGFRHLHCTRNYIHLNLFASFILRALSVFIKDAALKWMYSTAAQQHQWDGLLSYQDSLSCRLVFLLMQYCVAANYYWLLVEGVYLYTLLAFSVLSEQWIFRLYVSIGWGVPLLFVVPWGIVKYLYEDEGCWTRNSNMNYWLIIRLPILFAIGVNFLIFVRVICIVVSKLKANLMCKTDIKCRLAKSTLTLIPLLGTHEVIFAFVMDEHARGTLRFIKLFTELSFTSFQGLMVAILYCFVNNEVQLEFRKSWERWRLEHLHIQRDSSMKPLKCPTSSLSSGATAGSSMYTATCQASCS

Cc1cc(NC(=O)c2ccc3c(c2)nc(CN2CC=C(c4cccc(OCc5ccc(Cl)cc5F)n4)CC2)n3C[C@@H]2CCO2)cc2c(C(F)F)n[nH]c12 [Compound 169] was tested, and the EC50 was 1.02 nM.

Cc1n[nH]c2ccc(NC(=O)c3ccc4c(c3)nc(CN3CC=C(c5cccc6c5O[C@](C)(c5ccc(Cl)cc5F)O6)CC3)n4C[C@@H]3CCO3)cc12 [Compound 6] showed an EC50 of 1.21 nM.

In the case of Cc1cc(NC(=O)c2ccc3c(c2)nc(CN2CCC(c4cccc(OCc5ccc(Cl)cc5F)n4)CC2)n3C[C@@H]2CCO2)cc2c(C(F)F)n[nH]c12 [Compound 116], the EC50 is reported as 0.92 nM.

N#Cc1n[nH]c2ccc(NC(=O)c3ccc4c(c3)nc(CN3CCC(c5cccc(OCc6ccc(Cl)cc6F)n5)CC3)n4C[C@@H]3CCO3)cc12 [Compound 82] showed an EC50 of 116 nM.

Compound O=C(Nc1cc(F)c2c(c1)C1(CC1)C(=O)N2)c1ccc2c(c1)nc(CN1CCC(c3cccc(OCc4ccc(Cl)cc4F)n3)CC1)n2C[C@@H]1CCO1 [Compound 104] has an EC50 of 1.05 nM.

CC(C)c1n[nH]c2ccc(C(=O)Nc3ccc4c(c3)nc(Cc3cc(F)c(-c5cccc6c5OC(C)(c5ccc(C#N)cc5F)O6)cc3F)n4CC3CCO3)cc12 (centres unmarked) [Compound 323] was tested, and the EC50 was 2.73 nM.

In the case of Cc1cc2c(C#N)ccc(COc3cccc(C4CCN(Cc5nc6cc(NC(=O)c7cc(F)c8[nH]nc(C)c8c7)ccc6n5C[C@@H]5CCO5)CC4)n3)c2o1 [Compound 372], the EC50 is reported as 0.65 nM.

Cc1n[nH]c2ccc(C(=O)Nc3ccc4c(c3)nc(CN3CC=C(c5cccc(OCc6ccc(Cl)cc6F)n5)CC3)n4C[C@@H]3CCO3)nc12 [Compound 239] showed an EC50 of 3.19 nM.

In the case of O=C(Nc1ccc2c(c1)nc(CN1CC=C(c3cccc(OCc4ccc(Cl)cc4F)n3)CC1)n2C[C@@H]1CCO1)c1ccc2[nH]nc(C(F)F)c2c1 [Compound 219], the EC50 is reported as 1.21 nM.

Compound Cc1n[nH]c2cnc(C(=O)Nc3ccc4c(c3)nc(CN3CC=C(c5cccc(OCc6ccc(Cl)cc6F)n5)CC3)n4C[C@@H]3CCO3)nc12 [Compound 240] has an EC50 of 20.7 nM.

In the case of COCCn1c(CN2CCC(c3cccc(OCc4ccc(Cl)cc4F)n3)CC2)nc2cc(C(=O)NCc3ccc(C#N)cc3)ccc21 [Compound 30], the EC50 is reported as 1380 nM.

With Cc1n[nH]c2cnc(NC(=O)c3ccc4c(c3)nc(CN3CC=C(c5cccc(OCc6ccc(Cl)cc6F)n5)CC3)n4C[C@@H]3CCO3)nc12 [Compound 168] the EC50 was 10.5 nM.

Cc1nn(C)c2ccc(NC(=O)c3ccc4c(c3)nc(CN3CC=C(c5cccc(OCc6ccc(Cl)cc6F)n5)CC3)n4C[C@@H]3CCO3)cc12 [Compound 159] gave an EC50 of 9.74 nM.

For O=C(Nc1cc2[nH]ccc2s1)c1ccc2c(c1)nc(CN1CC=C(c3cccc(OCc4ccc(Cl)cc4F)n3)CC1)n2C[C@@H]1CCO1 [Compound 402], the EC50 was 73.2 nM.

Work on Cc1n[nH]c2c(F)cc(NC(=O)c3ccc4c(c3)nc(CN3CCC(c5cccc(OCc6cc(F)c(C#N)s6)n5)CC3)n4C[C@@H]3CCO3)cc12 [Compound 375] yielded an EC50 of 1.01 nM.

Cc1n[nH]c2ccc(C(=O)Nc3ccc4c(c3)nc(Cc3cc(F)c(-c5cccc6c5OC(C)(c5ccc(Cl)cc5F)O6)cc3F)n4CC3CCO3)cc12 (centres unmarked) [Compound 318] showed an EC50 of 1.53 nM.

Compound O=C(Nc1ccc2nc(CN3CC=C(c4cccc(OCc5ccc(Cl)cc5F)n4)CC3)n(C[C@@H]3CCO3)c2c1)c1cc(F)c2c(c1)C1(CC1)C(=O)N2 [Compound 286] has an EC50 of 0.21 nM.

With Cc1cc(NC(=O)c2ccc3c(c2)nc(CN2CCC(c4cccc(OCc5ccc(Cl)cn5)n4)CC2)n3C[C@@H]2CCO2)cc2c1NC(=O)C21CC1 [Compound 131] the EC50 was 1.21 nM.

Cc1n[nH]c2cnc(NC(=O)c3ccc4c(c3)nc(CN3CC=C(c5cccc(OCc6ccc(Cl)cc6F)n5)CC3)n4C[C@@H]3CCO3)cc12 [Compound 192] showed an EC50 of 9.87 nM.

COC(=O)[C@@H]1CC(F)(F)CN1C(=O)[C@H](C)NC(=O)c1ccc2c(c1)nc(CN1CCC(c3cccc(OCc4ccc(Cl)cc4F)n3)CC1)n2C[C@@H]1CCO1 [Compound 68] was tested, and the EC50 was 142 nM.

With O=C(Nc1ccc2c(c1)nc(CN1CC=C(c3cccc(OCc4ccc(Cl)cc4F)n3)CC1)n2CC1CCO1)c1ccn2ncc(Cl)c2c1 (centres unmarked) [Compound 206] the EC50 was 5.91 nM.

Work on CC(C)c1n[nH]c2ccc(NC(=O)c3ccc4c(c3)nc(CN3CCC(c5cccc(OCc6ccc(Cl)cc6F)n5)CC3)n4C[C@@H]3CCO3)cc12 [Compound 83] yielded an EC50 of 3.76 nM.

Work on COCCn1c(CN2CCC(c3cccc(OCc4ccc(Cl)cc4F)n3)CC2)nc2cc(C(=O)NCc3cccc(O)c3)ccc21 [Compound 32] yielded an EC50 of 112 nM.

O=C(CNC(=O)c1ccc2c(c1)nc(CN1CCC(c3cccc(OCc4ccc(Cl)cc4F)n3)CC1)n2C[C@@H]1CCO1)N[C@@H](CO)C(=O)O [Compound 49] was tested, and the EC50 was 2.47 nM.

COCCn1c(CN2CCC(c3cccc(OCc4ccc(Cl)cc4F)n3)CC2)nc2cc(C(=O)N[C@@H](C)c3ccc(O)cc3)ccc21 [Compound 40] was tested, and the EC50 was 36.5 nM.

Compound O=C(Nc1ccn2ncc(Cl)c2c1)c1ccc2c(c1)nc(CN1CC=C(c3cccc(OCc4ccc(Cl)cc4F)n3)CC1)n2CC1CCO1 (centres unmarked) [Compound 149] has an EC50 of 34.6 nM.

C=C(C)c1n[nH]c2ccc(C(=O)Nc3ccc4c(c3)nc(CN3CC=C(c5cccc6c5OC(C)(c5ccc(Cl)cc5F)O6)CC3)n4CC3CCO3)cc12 (centres unmarked) [Compound 315] gave an EC50 of 1.03 nM.

Compound O=C(Nc1ccc2[nH]nc(C(F)(F)F)c2c1)c1ccc2c(c1)nc(CN1CCC(c3cccc(OCc4ccc(Cl)cc4F)n3)CC1)n2C[C@@H]1CCO1 [Compound 111] has an EC50 of 2.34 nM.

In the case of Fc1cc(Cl)ccc1COc1cccc(C2=CCN(Cc3nc4cc(-c5nc(-c6cc(C(F)(F)F)[nH]n6)co5)ccc4n3C[C@@H]3CCO3)CC2)n1 [Compound 398], the EC50 is reported as 110 nM.

In the case of Cc1n[nH]c2ncc(C(=O)Nc3ccc4c(c3)nc(CN3CC=C(c5cccc(OCc6ccc(Cl)cc6F)n5)CC3)n4C[C@@H]3CCO3)nc12 [Compound 238], the EC50 is reported as 11.9 nM.

Compound Cc1cc(C(=O)Nc2ccc3c(c2)nc(CN2CC=C(c4cccc(OCc5ccc(Cl)cc5F)n4)CC2)n3C[C@@H]2CCO2)cc2c1NC(=O)C21CC1 [Compound 209] has an EC50 of 0.32 nM.

Cc1n[nH]c2c(C(F)(F)F)cc(NC(=O)c3ccc4c(c3)nc(CN3CC=C(c5cccc6c5OC(C)(c5ccc(Cl)cc5F)O6)CC3)n4CC3CCO3)cc12 (centres unmarked) [Compound 295] gave an EC50 of 2.19 nM.

For Cc1n[nH]c2c(C(F)(F)F)cc(NC(=O)c3ccc4c(c3)nc(CN3CCC(c5cccc(OCc6ccc(Cl)cc6F)n5)CC3)n4C[C@@H]3CCO3)cc12 [Compound 106], the EC50 was 2.31 nM.

O=C(NCC(=O)N1CC[C@@H](O)C1)c1ccc2c(c1)nc(CN1CCC(c3cccc(OCc4ccc(Cl)cc4F)n3)CC1)n2C[C@@H]1CCO1 [Compound 77] showed an EC50 of 1.9 nM.

In the case of Cc1n[nH]c2c(C)cc(C(=O)Nc3ccc4c(c3)nc(Cc3ccc(-c5cccc6c5OC(C)(c5ccc(C#N)cc5F)O6)cc3F)n4CC3CCO3)cc12 (centres unmarked) [Compound 317], the EC50 is reported as 0.32 nM.

COCCn1c(Cc2ccc(-c3cccc(OCc4ccc(C#N)cc4F)n3)cc2)nc2cc(C(=O)NCCc3ccc(C(=O)O)cc3)ccc21 [Compound 12] showed an EC50 of 122 nM.

Work on CCc1n[nH]c2ccc(C(=O)Nc3ccc4c(c3)nc(CN3CC=C(c5cccc6c5OC(C)(c5ccc(C#N)cc5F)O6)CC3)n4CC3CCO3)cc12 (centres unmarked) [Compound 310] yielded an EC50 of 0.93 nM.

For COCCn1c(CN2CCC(c3cccc(OCc4ccc(Cl)cc4F)n3)CC2)nc2cc(C(=O)NCc3ccc(O)c(C(=O)O)c3)ccc21 [Compound 37], the EC50 was 106 nM.

COCCn1c(CN2CCC(c3cccc(OCc4ccc(Cl)cc4F)n3)CC2)nc2cc(C(=O)NCc3ccc(O)c(F)c3)ccc21 [Compound 31] showed an EC50 of 37.2 nM.

Work on Cc1n[nH]c2c(C)cc(C(=O)Nc3ccc4nc(CN5CC=C(c6cccc(OCc7ccc(C#N)cc7F)n6)CC5)n(CC5CCO5)c4c3)cc12 (centres unmarked) [Compound 291] yielded an EC50 of 0.75 nM.

With Cc1cc(C(=O)Nc2ccc3c(c2)nc(CN2CC=C(c4cccc(OCc5ccc(Cl)cc5F)n4)CC2)n3C[C@@H]2CCO2)cc2nn[nH]c12 [Compound 242] the EC50 was 0.17 nM.

With CCn1cncc1Cn1c(CN2CCC(c3cccc(OCc4ccc(Cl)cc4F)n3)CC2)nc2cc(NC(=O)c3cc(F)c4[nH]nc(C)c4c3)ccc21 [Compound 259] the EC50 was 0.91 nM.

In the case of C[C@H](NC(=O)c1ccc2c(c1)nc(CN1CCC(c3cccc(OCc4ccc(Cl)cc4F)n3)CC1)n2C[C@@H]1CCO1)C(=O)N1CC(F)(F)C[C@H]1C(=O)O [Compound 66], the EC50 is reported as 1.41 nM.

CCc1cc(NC(=O)c2ccc3c(c2)nc(CN2CCC(c4cccc(OCc5ccc(Cl)cc5F)n4)CC2)n3C[C@@H]2CCO2)cc2c(C)n[nH]c12 [Compound 117] was tested, and the EC50 was 10.2 nM.

For Cc1n[nH]c2c(Cl)cc(NC(=O)c3ccc4c(c3)nc(CN3CCC(c5cccc(OCc6ccc(Cl)cc6F)n5)CC3)n4C[C@@H]3CCO3)cc12 [Compound 110], the EC50 was 4.45 nM.

Work on Cc1cc2c(C#N)ccc(COc3cccc(C4=CCN(Cc5nc6cc(C(=O)Nc7ccc8[nH]nc(C)c8c7)ccc6n5C[C@@H]5CCO5)CC4)n3)c2o1 [Compound 355] yielded an EC50 of 0.78 nM.

O=C(Nc1ccc2c(c1)nc(CN1CC=C(c3cccc(OCc4ccc(Cl)cc4F)n3)CC1)n2C[C@@H]1CCO1)c1ccc2[nH]ncc2c1 [Compound 204] showed an EC50 of 0.63 nM.

Work on CC1(c2ccc(Cl)cc2F)Oc2cccc(-c3cc(F)c(Cc4nc5cc(NC(=O)c6cc(F)c7c(c6)C(C6CC6)C(=O)N7)ccc5n4C[C@@H]4CCO4)c(F)c3)c2O1 (some centres unmarked) [Compound 326] yielded an EC50 of 0.64 nM.

Work on Cc1n[nH]c2ccc(NC(=O)c3ccc4nc(CN5CC=C(c6cccc(OCc7ccc(Cl)cc7F)n6)CC5)n(CC5CCO5)c4c3)cc12 (centres unmarked) [Compound 263] yielded an EC50 of 5.78 nM.

Compound CC1(C)C[C@@H](C(=O)O)N(C(=O)CNC(=O)c2ccc3c(c2)nc(CN2CCC(c4cccc(OCc5ccc(Cl)cc5F)n4)CC2)n3C[C@@H]2CCO2)C1 [Compound 58] has an EC50 of 4.35 nM.

For COCCn1c(Cc2ccc(-c3cccc(OCc4ccc(C#N)cc4F)n3)cc2-c2nccn2C)nc2cc(C(=O)NCCc3ccc(S(N)(=O)=O)cc3)ccc21 [Compound 29], the EC50 was > 10000 nM.

CC(C)c1n[nH]c2ccc(C(=O)Nc3ccc4c(c3)nc(CN3CCC(c5cccc6c5OC(C)(c5ccc(C#N)cc5F)O6)CC3)n4CC3CCO3)cc12 (centres unmarked) [Compound 347] showed an EC50 of 0.81 nM.

For COCCn1c(CN2CCC(c3cccc(OCc4ccc(Cl)cc4F)n3)CC2)nc2cc(C(=O)NCC(=O)c3ccc(O)c(O)c3)ccc21 [Compound 42], the EC50 was > 10000 nM.
